Earlier results in US6387904B2, “Method of treating glaucoma and ischemic retinopathy” (Pfizer INC, priority 1998, dated 2002).
Structures can show the parent of a compound that is named as a salt.

Columns and labels:
5-HT1A = biological target: T1, 5-HT1A (Homo sapiens, UniProt P08908); details: ligand [3H]-80H-DPAT; central nervous system tissue; mean ± spread (n)
T1 construct: host or cells: central nervous system tissue
T1 sequence (P08908 1-422): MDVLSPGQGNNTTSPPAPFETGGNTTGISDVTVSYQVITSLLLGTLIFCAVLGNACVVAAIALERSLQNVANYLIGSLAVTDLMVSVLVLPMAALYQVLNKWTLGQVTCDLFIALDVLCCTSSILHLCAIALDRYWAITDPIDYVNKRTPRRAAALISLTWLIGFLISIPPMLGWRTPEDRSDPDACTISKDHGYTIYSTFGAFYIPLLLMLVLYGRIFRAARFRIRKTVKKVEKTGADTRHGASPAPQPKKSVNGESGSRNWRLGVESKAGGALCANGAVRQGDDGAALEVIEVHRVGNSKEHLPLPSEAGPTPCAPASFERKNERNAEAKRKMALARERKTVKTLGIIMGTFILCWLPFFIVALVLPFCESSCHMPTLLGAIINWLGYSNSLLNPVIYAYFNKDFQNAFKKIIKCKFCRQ

Norpinephrine reuptake = Norpinephrine reuptake (Homo sapiens, UniProt P23975); details: neurotransmitter uptake inhibition; mean ± spread (n)
Chain of Norpinephrine reuptake (P23975 whole entry): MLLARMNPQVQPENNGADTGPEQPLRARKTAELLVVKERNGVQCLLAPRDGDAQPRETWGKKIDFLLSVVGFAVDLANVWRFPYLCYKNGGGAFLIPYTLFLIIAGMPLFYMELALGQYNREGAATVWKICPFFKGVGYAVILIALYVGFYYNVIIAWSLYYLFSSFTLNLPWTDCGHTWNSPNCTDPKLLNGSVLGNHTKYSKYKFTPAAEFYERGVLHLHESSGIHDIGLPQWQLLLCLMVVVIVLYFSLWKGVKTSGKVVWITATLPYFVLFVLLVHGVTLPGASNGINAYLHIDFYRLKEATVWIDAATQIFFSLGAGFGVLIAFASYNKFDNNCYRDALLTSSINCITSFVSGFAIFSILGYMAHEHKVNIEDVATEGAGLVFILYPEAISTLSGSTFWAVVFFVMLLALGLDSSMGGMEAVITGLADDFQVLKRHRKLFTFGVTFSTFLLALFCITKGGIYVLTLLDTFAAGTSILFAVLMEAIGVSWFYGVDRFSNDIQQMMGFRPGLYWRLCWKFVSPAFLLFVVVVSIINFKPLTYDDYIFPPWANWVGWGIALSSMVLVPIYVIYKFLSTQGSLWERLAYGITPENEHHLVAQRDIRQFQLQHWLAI

DA reuptake = biological target: T2, DA reuptake (Homo sapiens, UniProt Q01959); details: neurotransmitter uptake inhibition; mean ± spread (n)
T2 construct: host or cells: central nervous system tissue
T2 sequence (Q01959 whole entry): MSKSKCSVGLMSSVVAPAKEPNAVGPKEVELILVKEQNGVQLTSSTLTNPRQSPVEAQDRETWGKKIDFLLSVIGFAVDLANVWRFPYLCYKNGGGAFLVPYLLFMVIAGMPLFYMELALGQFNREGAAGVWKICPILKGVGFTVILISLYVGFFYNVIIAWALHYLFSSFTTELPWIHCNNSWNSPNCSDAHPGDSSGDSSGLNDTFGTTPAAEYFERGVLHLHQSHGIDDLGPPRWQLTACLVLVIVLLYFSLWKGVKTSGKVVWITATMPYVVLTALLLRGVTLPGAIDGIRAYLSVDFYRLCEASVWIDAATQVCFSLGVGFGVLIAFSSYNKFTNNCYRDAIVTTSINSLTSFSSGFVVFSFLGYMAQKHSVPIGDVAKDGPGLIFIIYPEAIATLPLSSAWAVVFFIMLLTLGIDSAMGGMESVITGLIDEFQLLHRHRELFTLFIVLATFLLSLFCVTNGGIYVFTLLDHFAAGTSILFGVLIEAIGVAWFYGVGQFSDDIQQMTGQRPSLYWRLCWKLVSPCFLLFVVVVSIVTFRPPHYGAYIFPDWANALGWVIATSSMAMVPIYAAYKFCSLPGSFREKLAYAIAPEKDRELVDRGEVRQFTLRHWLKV

Structure (SMILES): O=C1Cc2cc(CCN3CCN(c4nsc5ccccc45)CC3)c(Cl)cc2N1 [ziprasidone, 5-(2-(4-(1,2-benzisothiazol-3-yl)piperazinyl)ethyl)-6-chlorooxindole hydrochloride]
- pKi 5-HT1A (5-HT1A): 8.47 ± 0.05 (4)
- pKi Neurotransmiter Reuptake Blockade: Norpinephrine (Norpinephrine reuptake): 7.30 ± 0.01 (4)
- pKi Neurotransmiter Reuptake Blockade: DA (DA reuptake): 6.58 ± 0.02 (3)
